From US8486968B2, “Compounds” (Boehringer Ingelheim International GmbH, priority 2010, dated 2013)
pIC50: −log10 of the molar value.

How the values were obtained:
mPGES-1 [1] = molecular target: T1, mPGES-1 (Homo sapiens, UniProt O14684); test: A549 cell-based assay (PGE2 formation, IL-1β stimulated, 50% human serum); parameters: host or cells: A549 cells; conditions: A549 cells, IL-1β 5 ng/ml, 20-24 h, Table B, read-out: mPGES-1 inhibitory effect, IC50, cell assay
T1 sequence (O14684 1-152): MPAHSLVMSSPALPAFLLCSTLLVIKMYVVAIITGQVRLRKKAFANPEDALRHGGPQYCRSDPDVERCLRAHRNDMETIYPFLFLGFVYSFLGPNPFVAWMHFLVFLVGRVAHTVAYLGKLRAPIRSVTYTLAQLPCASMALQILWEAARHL
Protocol: Although the enzymatic assay is a high throughput assay the disadvantage is that it uses a recombinant protein which is not in its natural environment. Accordingly a cellular assay was established in which a cell line of human origin (A549) expressing the mPGES-1 protein was used. In addition in order to mimic the situation in humans in which compounds can be bound to plasma proteins 50% human serum is added in the assay. By having the combination of testing mPGES-1 in a cellular environment and the presence of 50% human serum this assay has a higher relevance to judge the therapeutic potential of a mPGES-inhibitor than the pure enzyme assay.
A549 cells (ATCC: CCL-185) are grown to about 90% confluence in F-12K Nutrient Mixture (Kaighn's Mod. Gibco) containing 10% FBS in a humified incubator at 37° C. and 5% CO2. Cells were detached using Trypsin-EDTA. A549 cells were seeded in a 384-well collagene plate at a density of 7000 cells/well (50 μl) in F-12 medium containing 1% Penicillin-Streptomycin and 50% human serum. The cells were allowed to attach for 3-4 h. After that the cells were incubated for 20-24 h in F-12k medium supplemented with 50% human serum, 1% Penicillin-Streptomycin and containing IL-1β at a final concentration of 5 ng/ml as well as 10 nM arachidonic acid in the presence of a vehicle or a test compound. The total volume is 100 μl.
Concentrations of PGE2 in the cell free medium (10 μl) were measured using a commercially available HTRF kit from Cisbio (as described above). The PGE2 formation in the absence of test compound was taken as 100%.
IC50 values were derived from at 6-8 point titrations using conventional software.

mPGES-1 [2] = molecular target: T1, mPGES-1; test: mPGES-1 enzyme assay (HTRF detection of PGE2); assay type: biochemical; parameters: made in house; host or cells: Rosetta E. coli (membrane/microsome fraction); conditions: recombinant human mPGES-1 microsomes, PGH2 2 μM, Table A; read-out: mPGES-1 inhibitory effect, IC50, enzyme assay
Protocol: Microsomes from Rosetta E. coli bacteria expressing recombinant human mPGES-1 can be derived as described below:
Inoculate 5 ml LB with Ampicilin (50 μg/ml) and Chloramphenicol (34 μg/ml) with bacteria from freeze culture. Incubate 8 h at 37° C. with 200 rpm. Thereafter, inoculate 500-1000 ml LB containing Amp and Chloro with the 5 ml on culture and grow to OD640 of 0.8-1.0. Chill the culture to +4° C. before induction. Induce the culture with IPTG at a final concentration of 400 μM. Express the protein at room temp 18-23° C. with 200 rpm shaking over night.
The following steps can be performed on the following day: • 1. Spin down the cells in 250 ml centrifuge flasks for 15 min at 7000 rpm (Beckmann Coulte Avanti J-E centrifuge) • 2. Dissolve the pellet from 250 ml culture in 12.5 ml homogenization buffer • 3. (15 mM Tris-HCL pH8, 1 mM EDTA pH8, […], 2.5 mM GSH, 1 Tablet Protease inhibitor per 50 ml buffer) • 4. Disintegrate the cells by sonication, 5×10 seconds at 48% amplitude of a 750 W sonifier • 5. Add 2.5 ml MgCl2 (100 mM) and DNase 12.5 μl (0.8 mg/ml) and incubate on ice for 30 min • 6. Spin down the bacteria debris and save the supernatant, 7000 rpm for 15 min • 7. Isolate the protein containing membranes in the supernatant by ultracentrifugation 120000×g for 2 hour at 4° C. (Sorvall T880 rotor). • 8. Discard the supernatant and dissolve the pellet in 20 mM Potassium phosphate buffer pH 7.4 (KH2PO4 and K2HPO4) buffer by sonication (5×10 s, 30% of a 50 W sonifier) and aliquot the enzyme and store aliquots at −80° C.
Before each experiment is performed an aliquot of the enzyme is thawed and it can then be dissolved in 0.1 M Potassium phosphate buffer pH7.4 (KH2PO4 and K2HPO4) buffer containing 2.5 mM GSH.
The aim of this assay is the determine the affinity of a test compound for the mPGES-1 enzyme.
47 μl of recombinant human mPGES-1 (˜0.5 μg protein/well) containing microsomal suspension in a buffer containing GSH, (2.5 mmol/L L-Glutathione reduced, dissolved in 0.1 mol/L Phosphat Buffer pH 7.4) is dispensed in a 384-well plate and thereafter 1 μl of the test compound(s) is/are added and incubated for 25 minutes at room temperature. The enzyme reaction is started by the addition of 2 μl PGH2 (final conc. 2 μM) dissolved in water-free Diglyme. After 60 seconds the reaction is terminated by addition of a stop solution containing FeCl2 (10 μL 0.074 mol/l FeCl2). The samples are diluted between 1:25 in PBS (Phosphate Buffered Saline). 10 μl of the diluted samples are transferred to 384-well low volume plate. In order to quantify the amount of PGE2 that has been formed, a homogenous time resolved fluorescent (HTRF) detecting of PGE2 has been performed using a commercially available kit from Cisbio according to the manufactures recommendation. This HTRF-based assay has been described in detail (see: Goedken et al., J Biomol Screen, 2008, 13(7), 619-625). Briefly, the diluted samples are mixed with 5 μl PGE2-d2 conjungate and 5 μl anti-PGE2 cryptate conjungate. After an incubation period of the plates over night, the fluorescence is measured by the use of an appropriate microplate reader.
The fluorescence of Europium cryptate (maxex=307 nm, maxem=620 nm) and d2-PGE2 (maxex=620 nm, maxem=665 nm) are measured.
The extent of the specific HTRF is measured as a ratio of the emission intensity at 665 nm vs. that at 620 nm at an excitation puls of 320 nm. The quantification plate contains also wells with different concentrations of PGE2 as calibration curve for the calculation of the PGE2 concentrations from the HTRF ratio values.
From all mPGES enzyme assay the background is subtracted and the IC50 is calculated over a nonlinear regression with conventional software.

SMILES	pIC50 (mPGES-1 [1])	pIC50 (mPGES-1 [2])
Cn1c(Nc2cc(CNC(=O)C3(C(F)(F)F)CC3)ccc2Cl)nc2cc(C(=O)N[C@H]3CC[C@H](C(F)(F)F)CC3)c(N3CCC(C(F)(F)F)CC3)nc21 [Example 1, N-(trans-4-Trifluoromethyl-cyclohexyl)-2-{2-chloro-5-[(1-trifluoromethyl-cyclopropyl-carbonylamino)methyl]-phenylamino}-5-[4-trifluoromethyl-piperidinyl]-3-methyl-3H-imidazo[4,5-b]pyridine-6-carboxamide]	8.15	8.30
Cn1c(Nc2c(Cl)ccc(CNC(=O)C(C)(C)C)c2Cl)nc2cc(C(=O)N[C@H]3CC[C@H](C(F)(F)F)CC3)c(N3CCC(F)CC3)nc21 [Example 2, N-(trans-4-Trifluoromethyl-cyclohexyl)-2-{2,6-dichloro-3-[(2,2-dimethyl-propionylamino)-methyl]-phenylamino}-5-[-fluoro-piperidinyl]-3-methyl-3H-imidazo[4,5-b]pyridine-6-carboxamide]	8.70	8.10
CC(C)(C)C(=O)NCc1ccc(Cl)c(Nc2nc3cc(C(=O)N[C@H]4CC[C@H](C(F)(F)F)CC4)c(N4CCC(F)CC4)nc3[nH]2)c1Cl [Example 3, N-(trans-4-Trifluoromethyl-cyclohexyl)-2-{2,6-dichloro-3-[(2,2-dimethyl-propionylamino)-methyl]-phenylamino}-5-[4-fluoro-piperidinyl]-3H-imidazo[4,5-b]pyridine-6-carboxamide]	8.70	8.52
CN(CC(F)F)c1nc2[nH]c(Nc3c(Cl)ccc(CNC(=O)C(C)(C)C)c3Cl)nc2cc1C(=O)N[C@H]1CC[C@H](C(F)(F)F)CC1 [Example 4]	8.52	9.00
CN(CC(F)F)c1nc2c(cc1C(=O)N[C@H]1CC[C@H](C(F)(F)F)CC1)nc(Nc1cc(CNC(=O)C3(C(F)(F)F)CC3)ccc1Cl)n2C [Example 5]	7.24	8.05
COCCN(C)c1nc2c(cc1C(=O)N[C@H]1CC[C@H](C(F)(F)F)CC1)nc(Nc1cc(CNC(=O)C3(C(F)(F)F)CC3)ccc1Cl)n2C [Example 6]		8.05
CC(C)(C)C(=O)NCc1ccc(Cl)c(Nc2nc3cc(C(=O)N[C@H]4CC[C@H](C(F)(F)F)CC4)c(N4CC[C@@H](F)C4)nc3[nH]2)c1Cl [Example 7]	7.96	8.40
CC(C)(C)C(=O)NCc1ccc(Cl)c(Nc2nc3cc(C(=O)N[C@H]4CC[C@H](C(F)(F)F)CC4)c(N4CC[C@H](F)C4)nc3[nH]2)c1Cl [Example 8]	7.96	8.70
CC(C)(C)C(=O)NCc1ccc(Cl)c(Nc2nc3cc(C(=O)N[C@H]4CC[C@H](C(F)(F)F)CC4)c(N4CCC(F)(F)C4)nc3[nH]2)c1Cl [Example 9]	8.22	8.70
CC(C)(C)OC(=O)NCc1cc(F)c(Cl)c(Nc2nc3cc(C(=O)N[C@H]4CC[C@H](C(F)(F)F)CC4)c(N4CCC(F)CC4)nc3[nH]2)c1Cl [Example 14, N-(trans-4-Trifluoromethyl-cyclohexyl)-2-{2,6-dichloro-5-fluoro-3-[(tert.butoxycarbonylamino)-methyl]-phenylamino}-5-[4-fluoro-piperidinyl]-3H-imidazo[4,5-b]pyridine-6-carboxamide]	7.07	7.46

Next, values leading:

pIC50 (mPGES-1 [1])	pIC50 (mPGES-1 [2])	SMILES
8.10	9.00	CN(CC(F)F)c1nc2[nH]c(Nc3c(Cl)ccc(CNC(=O)C(C)(C)C)c3Cl)nc2cc1C(=O)NC1CCC(F)(F)CC1 [Example 10]
7.33	8.00	CN(CC(F)F)c1nc2[nH]c(Nc3c(Cl)ccc(CNC(=O)C(C)(C)C)c3Cl)nc2cc1C(=O)NCC(F)F [Example 11]
8.70	8.70	CC(C)(C)C(=O)NCc1ccc(Cl)c(Nc2nc3cc(C(=O)N[C@H]4CC[C@H](C(F)(F)F)CC4)c(N4CC5CC5C4)nc3[nH]2)c1Cl (stereo partly shown) [Example 12]
8.00	8.70	CC(C)(C)C(=O)NCc1cc(F)c(Cl)c(Nc2nc3cc(C(=O)N[C@H]4CC[C@H](C(F)(F)F)CC4)c(N4CCC(F)CC4)nc3[nH]2)c1Cl [Example 15, N-(trans-4-Trifluoromethyl-cyclohexyl)-2-{2,6-dichloro-5-fluoro-3-[(2,2-dimethyl-propionylamino)-methyl]-phenylamino}-5-[4-fluoro-piperidinyl]-3H-imidazo[4,5-b]pyridine-6-carboxamide]
8.52	8.52	CN(Cc1nccn1C)c1nc2c(cc1C(=O)N[C@H]1CC[C@H](C(F)(F)F)CC1)nc(Nc1c(Cl)ccc(CNC(=O)C(C)(C)C)c1Cl)n2C [Example 16]
8.70	8.70	Cn1c(Nc2c(Cl)ccc(CNC(=O)C(C)(C)C)c2Cl)nc2cc(C(=O)N[C@H]3CC[C@H](C(F)(F)F)CC3)c(N3CC[C@@H](F)C3)nc21 [Example 18]
8.22	8.40	Cn1c(Nc2c(Cl)ccc(CNC(=O)C(C)(C)C(F)(F)F)c2Cl)nc2cc(C(=O)N[C@H]3CC[C@H](C(F)(F)F)CC3)c(N3CC[C@@H](F)C3)nc21 [Example 19]
8.52	8.70	CN(c1nc2c(cc1C(=O)N[C@H]1CC[C@H](C(F)(F)F)CC1)nc(Nc1c(Cl)ccc(CNC(=O)C(C)(C)C)c1Cl)n2C)C1COC1 [Example 20]
7.05	8.40	CN(Cc1nncn1C)c1nc2c(cc1C(=O)N[C@H]1CC[C@H](C(F)(F)F)CC1)nc(Nc1c(Cl)ccc(CNC(=O)C(C)(C)C)c1Cl)n2C [Example 21]
7.82	8.52	CN(CC1(C)COC1)c1nc2c(cc1C(=O)N[C@H]1CC[C@H](C(F)(F)F)CC1)nc(Nc1c(Cl)ccc(CNC(=O)C(C)(C)C)c1Cl)n2C [Example 22]
7.60		Cn1c(Nc2c(Cl)ccc(CNC(=O)C(C)(C)C)c2Cl)nc2cc(C(=O)NC(Cc3ccccc3)C(F)(F)F)c(N3CCC(C(F)(F)F)CC3)nc21 (stereo not shown) [Example 39]
